Assay results: PubChem BioAssay AID248 (DTP/NCI, 2004)
Values joined by “and” are separate entries in the source; they are usually repeats but may differ in a detail not shown here. Equal values may be shown once. Inconclusive results and toxic doses are left out. Cut-off read from the data, not from the text of the source: active = T/C of 150% or more; inactive = T/C below 125%.

System: L1210 leukemia ip in BDF1 mice, survival T/C
Experiment: NCI In Vivo Anticancer Drug Screen. Data for tumor model L1210 Leukemia (intraperitoneal) in B6D2F1 (BDF1) mice
Settings: endpoint: mean survival time, higher = longer survival
Outline: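 Value reflects the ratio of survival in compound-treated mice to survival in vehicle-treated controls, with both groups carrying the same transplanted tumor.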

[1] = dose: 100.0 mg/kg/injection, schedule: Q01DX001 (ip), vehicle: carboxymethylcellulose (CMC)
[2] = dose: 200.0 mg/kg/injection, schedule: Q01DX001 (ip), vehicle: carboxymethylcellulose (CMC)
[3] = dose: 400.0 mg/kg/injection, schedule: Q01DX001 (ip), vehicle: carboxymethylcellulose (CMC)
[4] = dose: 50.0 mg/kg/injection, schedule: Q01DX009 (ip), vehicle: Klucel (hydroxypropylcellulose) (HPC)
[5] = dose: 100.0 mg/kg/injection, schedule: Q01DX009 (ip), vehicle: Klucel (hydroxypropylcellulose) (HPC)
[6] = dose: 100.0 mg/kg/injection, schedule: Q01DX009 (ip), vehicle: saline with Tween-80
[7] = dose: 100.0 mg/kg/injection, schedule: Q04DX003 (ip), vehicle: saline
[8] = dose: 200.0 mg/kg/injection, schedule: Q04DX003 (ip), vehicle: saline
[9] = dose: 400.0 mg/kg/injection, schedule: Q04DX003 (ip), vehicle: saline
[10] = dose: 100.0 mg/kg/injection, schedule: Q04DX003 (ip), vehicle: Klucel (hydroxypropylcellulose) (HPC)
[11] = dose: 200.0 mg/kg/injection, schedule: Q04DX003 (ip), vehicle: Klucel (hydroxypropylcellulose) (HPC)
[12] = dose: 100.0 mg/kg/injection, schedule: Q04DX002 (ip), vehicle: Klucel (hydroxypropylcellulose) (HPC)
[13] = dose: 200.0 mg/kg/injection, schedule: Q01DX009 (ip), vehicle: Klucel (hydroxypropylcellulose) (HPC)
[14] = dose: 200.0 mg/kg/injection, schedule: Q04DX002 (ip), vehicle: Klucel (hydroxypropylcellulose) (HPC)
[15] = dose: 400.0 mg/kg/injection, schedule: Q04DX002 (ip), vehicle: Klucel (hydroxypropylcellulose) (HPC)
[16] = dose: 50.0 mg/kg/injection, schedule: Q01DX001 (ip), vehicle: carboxymethylcellulose (CMC)
[17] = dose: 100.0 mg/kg/injection, schedule: Q01DX001 (ip), vehicle: saline

Measured: T/C

O=P(NO)(c1ccccc1)c1ccccc1
inactive: [1] 92 % of control | [2] 95 % of control | [3] 95 % of control

CS(=O)(=O)Oc1cc(=O)oc2ccccc12
inactive: [4] 103 % of control | [5] 109 % of control

CC1(C)OCC(COCc2ccccc2)O1 (centres undefined)
inactive: dose: 100.0 mg/kg/injection, schedule: Q04DX003 (ip), vehicle: saline with Tween-80 96 % of control | dose: 200.0 mg/kg/injection, schedule: Q04DX003 (ip), vehicle: saline with Tween-80 104 % of control | dose: 400.0 mg/kg/injection, schedule: Q04DX003 (ip), vehicle: saline with Tween-80 95 % of control

COc1cc(OC)c(C(=O)c2ccccc2[N+](=O)[O-])c(OC)c1
inactive: [6] 91 % of control | [7] 99 % of control | dose: 200.0 mg/kg/injection, schedule: Q01DX009 (ip), vehicle: saline with Tween-80 92 % of control | [8] 99 % of control | dose: 400.0 mg/kg/injection, schedule: Q01DX009 (ip), vehicle: saline with Tween-80 96 % of control | [9] 100 % of control

Cc1c(O)ccc2ccc(=O)oc12
inactive: [1] 98 % of control | [2] 90 % of control | [3] 93 % of control

O=C1CC2CCCC(CCO)(C2)N1 (centres undefined)
inactive: [1] 91 % of control | [2] 94 % of control | [3] 103 % of control

NC(N)=Nc1ccc(C(=O)Oc2ccc(OC(=O)c3cccc(N=C(N)N)c3)cc2)cc1
inactive: dose: 50.0 mg/kg/injection, schedule: Q01DX009 (ip), vehicle: water 96 % of control | dose: 50.0 mg/kg/injection, schedule: Q04DX003 (ip), vehicle: water 90 % of control | dose: 100.0 mg/kg/injection, schedule: Q01DX009 (ip), vehicle: water 98 % of control | dose: 100.0 mg/kg/injection, schedule: Q04DX003 (ip), vehicle: water 93 % of control and 97 % of control | dose: 200.0 mg/kg/injection, schedule: Q01DX009 (ip), vehicle: water 92 % of control | dose: 200.0 mg/kg/injection, schedule: Q04DX003 (ip), vehicle: water 98 % of control and 100 % of control | dose: 400.0 mg/kg/injection, schedule: Q04DX003 (ip), vehicle: water 93 % of control and 95 % of control

N=C(N)c1ccc(-n2cc3cc(C(=N)N)ccc3n2)cc1
inactive: dose: 6.25 mg/kg/injection, schedule: Q04DX003 (ip), vehicle: saline 96 % of control and 110 % of control | dose: 12.5 mg/kg/injection, schedule: Q04DX003 (ip), vehicle: saline 100 % of control | dose: 25.0 mg/kg/injection, schedule: Q04DX003 (ip), vehicle: saline 106 % of control and 91 % of control

C=CCC1(CC)C(=O)NC(=O)NC1=O
inactive: dose: 50.0 mg/kg/injection, schedule: Q01DX009 (ip), vehicle: saline sonified 102 % of control | dose: 100.0 mg/kg/injection, schedule: Q01DX009 (ip), vehicle: saline sonified 110 % of control | [10] 94 % of control | dose: 200.0 mg/kg/injection, schedule: Q01DX009 (ip), vehicle: saline sonified 108 % of control | [11] 94 % of control

CC1=Nc2ccc([N+](=O)[O-])cc2N=C(C)C1
inactive: dose: 100.0 mg/kg/injection, schedule: Q01DX009 (ip), vehicle: saline 95 % of control | [7] 105 % of control | dose: 200.0 mg/kg/injection, schedule: Q01DX009 (ip), vehicle: saline 93 % of control | [8] 96 % of control | dose: 400.0 mg/kg/injection, schedule: Q01DX009 (ip), vehicle: saline 92 % of control | [9] 96 % of control

CC(C)(O)C#Cc1ccccc1
inactive: [4] 99 % of control | dose: 100.0 mg/kg/injection, schedule: Q01DX005 (ip), vehicle: Klucel (hydroxypropylcellulose) (HPC) 105 % of control | [5] 99 % of control | [12] 95 % of control | dose: 200.0 mg/kg/injection, schedule: Q01DX005 (ip), vehicle: Klucel (hydroxypropylcellulose) (HPC) 97 % of control | [13] 92 % of control | [14] 113 % of control | [15] 102 % of control

CCCCCCCCCCCCCCCCCCCC(=O)CCl
inactive: dose: 100.0 mg/kg/injection, schedule: Q04DX002 (sc), vehicle: olive oil, sesame oil, peanut oil 104 % of control | dose: 200.0 mg/kg/injection, schedule: Q04DX002 (sc), vehicle: olive oil, sesame oil, peanut oil 100 % of control | dose: 400.0 mg/kg/injection, schedule: Q04DX002 (sc), vehicle: olive oil, sesame oil, peanut oil 107 % of control

CC(=O)Nc1cc(Cl)ccc1C
inactive: dose: 25.0 mg/kg/injection, schedule: Q01DX009 (ip), vehicle: saline with Tween-80 93 % of control | dose: 50.0 mg/kg/injection, schedule: Q01DX009 (ip), vehicle: saline with Tween-80 90 % of control | dose: 50.0 mg/kg/injection, schedule: Q04DX003 (ip), vehicle: saline 95 % of control | [6] 89 % of control | [7] 97 % of control | [8] 100 % of control

NC(=O)C1(Nc2ccc(-c3ccc(I)cc3)cc2)CCCC1
inactive: [16] 86 % of control | [1] 86 % of control | [2] 86 % of control | [3] 90 % of control

O=C1c2ccccc2-c2cc(Cl)c(N=Cc3ccc4c(c3)OCO4)cc21
inactive: [1] 98 % of control | [2] 102 % of control | [3] 109 % of control

CCC1=CC2CC3(C(=O)OC)c4[nH]c5ccccc5c4CC[N+](Cc4ccccc4)(C2)C13 (centres undefined)
inactive: [17] 100 % of control

c1ccc(OCC2(N3CCCCC3)CCCC2)cc1
inactive: dose: 100.0 mg/kg/injection, schedule: Q04DX002 (ip), vehicle: saline with Tween-80 97 % of control

Nc1cccc(OCCOc2cccc(S(=O)(=O)F)c2)c1
inactive: [17] 95 % of control | dose: 200.0 mg/kg/injection, schedule: Q01DX001 (ip), vehicle: saline 93 % of control | dose: 400.0 mg/kg/injection, schedule: Q01DX001 (ip), vehicle: saline 90 % of control

CCOC(=O)c1cnc(NN)[nH]c1=O
inactive: [10] 97 % of control | [11] 97 % of control

CCN(CC)Cc1ccccc1COC(=O)c1cccc(C)c1
inactive: dose: 50.0 mg/kg/injection, schedule: Q04DX002 (ip), vehicle: saline 93 % of control | dose: 100.0 mg/kg/injection, schedule: Q04DX002 (ip), vehicle: saline 90 % of control | dose: 200.0 mg/kg/injection, schedule: Q04DX002 (ip), vehicle: saline 93 % of control

CCOc1ccc(NC(=O)COc2ccc(Cl)cc2Cl)cc1
inactive: [12] 89 % of control | [14] 101 % of control | [15] 92 % of control

O=C(NC(c1ccccc1)C(O)c1ccccc1)c1ccc([N+](=O)[O-])cc1 (centres undefined)
inactive: [16] 96 % of control | [1] 93 % of control | dose: 100.0 mg/kg/injection, schedule: Q04DX003 (ip), vehicle: acetone 109 % of control | [2] 93 % of control | dose: 200.0 mg/kg/injection, schedule: Q04DX003 (ip), vehicle: acetone 96 % of control | [3] 87 % of control | dose: 400.0 mg/kg/injection, schedule: Q04DX003 (ip), vehicle: acetone 103 % of control

CCOC(=O)CNC(=O)C=[N+]=[N-]
inactive: dose: 350.0 mg/kg/injection, schedule: Q01DX Z (ip), vehicle: water 116 % of control | dose: 500.0 mg/kg/injection, schedule: Q01DX Z (ip), vehicle: water 91 % of control

N#Cc1c(N)ncc2c1CCCC2
inactive: [4] 102 % of control | [5] 98 % of control | [13] 105 % of control

Oc1cc(O)c(O)cc1O
inactive: dose: 6.25 mg/kg/injection, schedule: Q01DX009 (ip), vehicle: saline 102 % of control | dose: 6.25 mg/kg/injection, schedule: Q04DX003 (ip), vehicle: saline with Tween-80 93 % of control | dose: 12.5 mg/kg/injection, schedule: Q01DX009 (ip), vehicle: saline 102 % of control | dose: 12.5 mg/kg/injection, schedule: Q04DX003 (ip), vehicle: saline with Tween-80 97 % of control | dose: 25.0 mg/kg/injection, schedule: Q01DX009 (ip), vehicle: saline 110 % of control | dose: 25.0 mg/kg/injection, schedule: Q04DX003 (ip), vehicle: saline with Tween-80 98 % of control

S=P(N1CCOCC1)(N1CCOCC1)N1CCOCC1
inactive: [12] 103 % of control | [14] 89 % of control | [15] 113 % of control
